Laboratory results published in patent US20160075991A1, “Process for Preparing Starter Cultures of Lactic Acid Bacteria” (INSTITUT NATIONAL DE LA RECHERCHE, priority 1998, published 2016).

Tests used:
Experiment in all cases: Culture with hemin and agitation, different strains (Example 4)
Type in all cases: cell-based, L. lactis
Z191 = details: strain Z191, hemin 10 μg/ml and agitation, M17 1% glucose, 24 h
Protocol: (§1) Bacteria [MG1363 and 7 strains (IL1403, IL582, IL801, IL896, Z105, Z106, Z191) representative of L. lactis subgroups [TAILLEZ et al., System. Appl. Microbiol., 21, 530-538, (1998)] are cultured in M17 medium (1% glucose) inoculated (1/1000 dilution) with a saturated starter culture previously grown at 30° C. for 24 h. Hemin at a final concentration of 10 μg/ml is added to the inoculated medium before aerating the cultures by shaking (minimum 220 rpm). Control cultures are grown in parallel with no hemin in the medium, and no shaking. […]

IL896 = details: strain IL896, hemin 10 μg/ml and agitation, M17 1% glucose, 24 h
Protocol: as §1

IL582 = details: strain IL582, hemin 10 μg/ml and agitation, M17 1% glucose, 24 h
Protocol: as §1

MG1363 = details: strain MG1363, hemin 10 μg/ml and agitation, M17 1% glucose, 24 h
Protocol: as §1

Z105 = details: strain Z105, hemin 10 μg/ml and agitation, M17 1% glucose, 24 h
Protocol: as §1

IL1403 = details: strain IL1403, hemin 10 μg/ml and agitation, M17 1% glucose, 24 h
Protocol: as §1

Compound: C=CC1=C(C)c2cc3[n-]c(cc4nc(cc5[n-]c(cc1n2)c(C)c5C=C)C(C)=C4CCC(=O)O)c(CCC(=O)O)c3C.[Cl-].[Fe+3] [hemin]
- pH (Z191; final pH): 5.36
- OD500 nm (Z191): 3.8
- pH (IL896; final pH): 5.24
- OD500 nm (IL896): 4.5
- pH (IL582; final pH): 5.73
- OD500 nm (IL582): 5.1
- pH (MG1363; final pH): 5.86
- OD500 nm (MG1363): 5
- pH (Z105; final pH): 5.67
- OD500 nm (Z105): 5
- pH (IL1403; final pH): 5.41
- OD500 nm (IL1403): 5.3
